Data from US9050301B2, “Pharmaceutical composition for treatment of corneal endothelial wounds containing angiogenin” (Chung-Ang University Industry-Academy Cooperation Foundation, priority 2013, dated 2015).

Tests used:
[1] = tested on: rabbit corneal endothelium; experiment: Corneal transparency grade by slit-lamp after trans-corneal freezing damage; format: in vivo; settings: mean ± SE
Experimental: 30 eyeballs of 15 healthy white New Zealand rabbits weighing about 2.0 kg to about 3.0 kg without external opacification were anesthetized by intramuscular injection with 12.5 mg/kg of tiletamine/zolazepam (Zoletil®, VirbacLab, France) and 12.5 mg/kg of zylazine (Rompun®, BayerKorea, Korea). Afterwards, 0.5% povidone-iodine was used for disinfection of the whole range of experimental sight. Referring to FIG. 1, an 8 mm-diameter stainless steel rod as a probe was immersed in liquid nitrogen for 3 minutes, removed therefrom once the temperature of the liquid nitrogen reached −196° C., and brought into contact to the central cornea for 15 seconds. Then, each of the eyeballs was washed with 10 cc of 0.9% saline solution. In order to prevent the occurrence of corneal infection, the rabbit corneas were given instillation of Levofloxacin (Cravit®, Santen, Japan) three times a day for 3 days after the damage was induced.
3 groups consisting of 10 eyeballs given instillation of angiogenin (200 μg/mL), 7 eyeballs given Y-27632 (10 mM) inhibitor of Rho-associated coiled-coil kinase (ROCK) pathway, and 7 eyeballs as a control group given phosphate-buffered solution (PBS) were each subjected to 50 μl of instillation at a time, and more particularly, 6 times a day for the first 2 days, and then, 4 times a day for the following 2 days, starting immediately after inducing freeze-damages to the trans-corneal endothelium. That is, the instillation was performed 20 times in total for 4 days.
Then, the groups were subjected to the evaluation of corneal opacity and corneal edema by using a digital camera (VLUUNV100HD, Samsung, Suwon, Korea) to obtain images taken in a diagonal direction.
Experiments have been carried out to identify effects of angiogenin-induced PI3k-Akt signaling pathway in terms of recovering the corneal transparency after inducing damages to the corneal endothelium. After inducing freeze-damages to the corneal endothelium, 4 eyeballs out of 30 rabbit eyeballs in total were subjected to 50 μl of each of 200 μg/mL of angiogenin and 200 μM of PI3k-Akt pathway inhibitor, LY294002 instillation at a time every 3 minutes, and more particularly, 6 times a day for the first 2 days, and then, 4 times a day for the following one day. That is, the instillation was performed 16 times in total for 3 days.

[2] = tested on: human corneal endothelial cells; experiment: In vitro scratch wound healing of cultured human corneal endothelial cells; format: cell-based; settings: for Wound healing index compared with the control group: 6 and 24 hours, angiogenin 5 μg/ml, Y-27632 10 μM
Experimental: A corneal endothelial tissue segment obtained from remaining corneal portions other than the central 8 mm corneal portion in cadaveric cornea donated for transplantation and a corneal endothelial tissue segment of a normal rabbit were cultured. Then, each of the corneal tissues was divided into 6 pieces and washed by shaking 6 times in a petri dish to which 7 ml of 5% penicillin/streptomycin (P/S) was added. Then, the washed tissues were each transferred to a 6-well dish such that the endothelial layer was facing down, and the tissues were semi-dried until the dishes were slightly drained. […]
Experiments have been carried to identify angiogenin effects on migration and proliferation of the corneal endothelial cells. […] At every 0 hour, 12 hours, 24 hours, and 48 hours, digital images of the remaining wounded areas were obtained at 40× magnification of the optical microscope, and measured in pixels by using the Image J software. […] At every 6 hours and 24 hours, the wounded areas were measured by using the Image J software. The ratio of initial wounded area versus recovered area was defined as wound healing index, which is calculated as shown below. […]
Experiments have been carried to identify optimal concentration of angiogenin to improve in vitro migration and proliferation improvement of the cultured human corneal endothelial cells. […] At every 0 hour, 12 hours, 24 hours, and 48 hours, the wounded areas were measured by using the Image J software. […]

[3] = 48 h after freeze damage, instillation 50 μl (angiogenin 200 μg/mL, Y-27632 10 mM), grade 0 transparent to +4.0 turbid (Table 1)
[4] = 72 h after freeze damage, instillation 50 μl (angiogenin 200 μg/mL, Y-27632 10 mM, LY294002 200 μM), grade 0 to +4.0 (Table 1)
[5] = 144 h after freeze damage, instillation 50 μl (angiogenin 200 μg/mL, Y-27632 10 mM), grade 0 to +4.0 (Table 1)
[6] = 192 h after freeze damage, instillation 50 μl (angiogenin 200 μg/mL, Y-27632 10 mM), grade 0 to +4.0 (Table 1)

Row | Molecule | Grade of corneal transparency (by using slit-lamp biomicroscope) [1, 3] | Grade of corneal transparency (by using slit-lamp biomicroscope) [1, 4] | Grade of corneal transparency (by using slit-lamp biomicroscope) [1, 5] | Grade of corneal transparency (by using slit-lamp biomicroscope) [1, 6] | Wound healing index compared with the control group [2] | Angiogenin concentration giving the highest wound healing index ([2]; 1, 2, 5 and 10 μg/ml tested, 0, 12, 24, 48 hours) [µg/mL]
1 | C[C@@H](N)[C@H]1CC[C@H](C(=O)Nc2ccncc2)CC1 [Y-27632, reference compound] | 4.00 ± 0 | 3.00 ± 0.41 | 1.38 ± 0.38 | 1.38 ± 0.38 | high wound healing index | –
2 | Angiogenin: 14.4-kDa single chain protein of 123 amino acids, secreted protein capable of inducing angiogenesis | 4.00 ± 0 | 2.65 ± 0.37 | 1.29 ± 0.26 | 1.29 ± 0.26 | high wound healing index | 5
